Experimental data: the CombiSolv-Exp solvation set (Vermeire and Green 2021)

Assay: solvent given as SMILES

Oc1ccc(Cl)cc1
Conditions	solvation free energy, 298 K [kcal/mol]
in CC(C)CC(C)(C)C	-6.6
in CCCCCC	-6.91
in CCCCCCC	-6.89
in CCCCCCCC	-6.88
in CCCCCCCCCC	-6.89
in Cc1ccc(C)cc1	-8.29
in Cc1cccc(C)c1	-8.39
in Cc1ccccc1C	-8.48
in O	-7.04

CCc1ccccc1C
Conditions	solvation free energy, 298 K [kcal/mol]
in O	-0.95

CC(C)CN(CC(C)C)N=O
Conditions	solvation free energy, 298 K [kcal/mol]
in CC(C)CC(C)(C)C	-7.35
in O	-4.84

CCC(C)Cl (configuration not stated)
Conditions	solvation free energy, 298 K [kcal/mol]
in C1CCOC1	-4.34
in C1CCOCC1	-4.24
in C1COCCO1	-4.08
in C=CCCCCCCCCCCCCCC	-3.46
in CC(C)OC(C)C	-3.95
in CCCCCC	-3.84
in CCCCCl	-4.16
in COC(C)(C)C	-4.08

Nc1ccc(S(=O)(=O)Nc2ccccn2)cc1
Conditions	solvation free energy, 298 K [kcal/mol]
in O	-18.7

Cc1cc(NS(=O)(=O)c2ccc(N)cc2)nc(C)n1
Conditions	solvation free energy, 298 K [kcal/mol]
in O	-21.9

CCI
Conditions	solvation free energy, 298 K [kcal/mol]
in Brc1cccc2ccccc12	-3.97
in Brc1ccccc1	-4.23
in C1CCOC1	-4.45
in C1COCCO1	-4.21
in C=CCCCCCCCCCCCCCC	-3.53
in CC1COC(=O)O1	-3.71
in CC#N	-3.81
in CC(=O)N(C)C	-3.97
in CC(=O)OCc1ccccc1	-3.91
in CC(=O)c1ccccc1	-4.05
in CC(C)(C)O	-3.48
in CC(C)=O	-4
in CC(C)CC(C)(C)C	-3.61
in CC(C)CCO	-3.75
in CC(C)O	-3.56
in CCC#N	-3.94
in CCC(C)=O	-4.1
in CCCBr	-4.31
in CCCCCC	-3.73
in CCCCCCC	-3.68
in CCCCCCCC	-3.66
in CCCCCCCCO	-3.53
in CCCCCl	-4.15
in CCCCO	-3.63
in CCCO	-3.55
in CCO	-3.57
in CCOC(=O)c1ccccc1	-3.99
in CCOC(C)=O	-4.04
in CCOCC	-3.78
in CN(C)C=O	-3.83
in CO	-3.58
in CS(C)=O	-3.82
in Cc1ccc(C)cc1	-4.14
in Cc1ccccc1	-4.2
in ClC1CCCCC1	-4.19
in ClC(Cl)(Cl)Cl	-4.17
in ClC(Cl)C(Cl)Cl	-4.41
in ClC(Cl)Cl	-4.44
in ClCCCl	-4.2
in ClCCl	-4.12
in Clc1ccccc1	-4.22
in Ic1ccccc1	-4.29
in N#Cc1ccccc1	-4
in O	-0.74
in O=C1CCCCC1	-4.18
in c1ccc2ncccc2c1	-3.93
in c1ccccc1	-4.32

O=c1[nH]cc(C(F)(F)F)c(=O)[nH]1
Conditions	solvation free energy, 298 K [kcal/mol]
in O	-15.5

C=C1C=CC(C(C)C)CC1 (configuration not stated)
Conditions	solvation free energy, 298 K [kcal/mol]
in O	0.26

C=CC=CCC
Conditions	solvation free energy, 298 K [kcal/mol]
in C=CCCCCCCCCCCCCCC	-3.64
in CN1CCCC1=O	-3.67
in O	0.75

O=C(Oc1ccccc1)c1ccccc1C(=O)Oc1ccccc1
Conditions	solvation free energy, 298 K [kcal/mol]
in O	-11.6

CCC(C)(O)C(C)C (configuration not stated)
Conditions	solvation free energy, 298 K [kcal/mol]
in CCCCCCCC	-5.4
in CCCCCCCCCC	-5.34

CCCCCOC(=O)CC
Conditions	solvation free energy, 298 K [kcal/mol]
in O	-2.11

Cc1cccc(N)c1
Conditions	solvation free energy, 298 K [kcal/mol]
in O	-5.69

c1ccc2cc3ccccc3cc2c1
Conditions	solvation free energy, 298 K [kcal/mol]
in Brc1ccccc1	-11.6
in C1CCOC1	-11.9
in C1COCCO1	-11.5
in CC(=O)N(C)C	-11.5
in CC(C)(C)O	-9.71
in CC(C)=O	-11.2
in CC(C)CC(C)(C)C	-9.93
in CC(C)CC(C)O	-9.89
in CC(C)CCCC(C)CCO	-10.2
in CC(C)CCO	-9.93
in CC(C)CO	-9.77
in CC(C)O	-10
in CC(C)OC(C)C	-10.5
in CC(C)OCCO	-10.8
in CC(O)COC(C)(C)C	-10.5
in CCC(C)(C)O	-9.99
in CCC(C)=O	-11.3
in CCC(C)O	-9.9
in CCCC(=O)OC	-11.2
in CCCC(C)CO	-10
in CCCC(C)O	-9.99
in CCCCC(CC)CO	-10.1
in CCCCCC	-10.2
in CCCCCCC	-10.2
in CCCCCCCC	-10.2
in CCCCCCCCCC	-10.3
in CCCCCCCCCCO	-10.5
in CCCCCCCCO	-10.3
in CCCCCCCO	-10.3
in CCCCCCO	-10.3
in CCCCCO	-10.2
in CCCCCOC(C)=O	-11.1
in CCCCCl	-11.2
in CCCCO	-10.1
in CCCCOC(C)=O	-11.1
in CCCCOCCCC	-10.6
in CCCCOCCO	-10.8
in CCCO	-10
in CCCOC(C)=O	-11.1
in CCCOCCO	-10.8
in CCO	-10.4
in CCOC(C)=O	-11.1
in CCOCC	-10.9
in CCOCCO	-10.7
in CN1CCCC1=O	-12
in CN(C)C=O	-11.6
in CNC=O	-10.4
in CO	-9.89
in COC(C)(C)C	-10.7
in COC(C)=O	-11.1
in COC(C)CCO	-10.7
in COCCO	-10.8
in Cc1ccc(C)cc1	-11.2
in Cc1cccc(C)c1	-11.3
in Cc1ccccc1C	-11.5
in ClC(Cl)(Cl)Cl	-11.2
in ClC(Cl)Cl	-11.5
in ClCCl	-11.8
in Clc1ccccc1	-11.5
in Fc1ccccc1	-11.3
in N#Cc1ccccc1	-11.4
in O	-4.12
in O=C1CCCCC1	-11.6

CCCCCC
Conditions	solvation free energy, 298 K [kcal/mol]
in BrC(Br)C(Br)Br	-2.72
in Brc1cccc2ccccc12	-3.07
in Brc1ccccc1	-3.65
in C1=Cc2ccccc2C1	-3.49
in C1CCC(C2CCCCC2)CC1	-3.73
in C1CCCCC1	-4.06
in C1CCOC1	-3.9
in C1COCCO1	-3.22
in C=CCCCC	-4.02
in C=CCCCCCC	-3.93
in C=CCCCCCCCC	-3.92
in C=CCCCCCCCCCCCCCC	-3.59
in CC1CCS(=O)(=O)C1	-2.13
in CC1COC(=O)O1	-2.04
in CC#N	-2.63
in CC(=O)CC(C)C	-3.59
in CC(=O)N(C)C	-2.76
in CC(=O)O	-2.89
in CC(=O)OCc1ccccc1	-3.02
in CC(=O)c1ccccc1	-3.04
in CC(C)(C)Cl	-4
in CC(C)(C)O	-3.33
in CC(C)=O	-3.26
in CC(C)CCCC(C)CCCC(C)CCCCC(C)CCCC(C)CCCC(C)C	-3.47
in CC(C)CCO	-3.31
in CC(C)CCl	-3.94
in CC(C)CO	-3.36
in CC(C)O	-3.21
in CC(C)OC(C)C	-3.98
in CC(O)CO	-1.94
in CCBr	-4.08
in CCC#N	-3.13
in CCC(C)(C)C	-4.04
in CCC(C)(C)OC	-3.92
in CCC(C)=O	-3.44
in CCC(C)Cl	-3.98
in CCCC#N	-3.07
in CCCC(=O)OCC	-3.64
in CCCC(C)=O	-3.52
in CCCCC	-4.11
in CCCCC#N	-3.27
in CCCCC(CC)COC(=O)CCCCC(=O)OCC(CC)CCCC	-3.33
in CCCCC(CC)COC(=O)c1ccccc1C(=O)OCC(CC)CCCC	-3.13
in CCCCCC#N	-3.28
in CCCCCC(C)=O	-3.54
in CCCCCCC	-3.97
in CCCCCCCC	-3.92
in CCCCCCCCC	-3.86
in CCCCCCCCC=CCCCCCCCC(=O)OCC(COC(=O)CCCCCCCC=CCCCCCCCC)OC(=O)CCCCCCCC=CCCCCCCCC	-3.45
in CCCCCCCCCC	-3.83
in CCCCCCCCCCCC	-3.73
in CCCCCCCCCCCCCC	-3.6
in CCCCCCCCCCCCCCCC	-3.64
in CCCCCCCCCCCCO	-3.31
in CCCCCCCCCOC(=O)c1ccccc1C(=O)OCCCCCCCCC	-3.23
in CCCCCCCCN(CCCCCCCC)CCCCCCCC	-3.49
in CCCCCCCCO	-3.36
in CCCCCCCO	-3.33
in CCCCCCO	-3.39
in CCCCCCOC(C)=O	-3.61
in CCCCCN(CCCCC)CCCCC	-3.67
in CCCCCO	-3.33
in CCCCCl	-3.91
in CCCCN(C=O)CCCC	-3.25
in CCCCN(CCCC)CCCC	-3.6
in CCCCO	-3.32
in CCCCOC(=O)c1ccccc1C(=O)OCCCC	-3.24
in CCCCOC(C)=O	-3.59
in CCCCOCCCC	-3.87
in CCCO	-3.16
in CCN1CCCC1=O	-2.88
in CCN(CC)C(C)=O	-3.11
in CCN(CC)CC	-4.01
in CCNC(C)=O	-2.92
in CCNC=O	-2.69
in CCO	-3.1
in CCOC(=O)c1ccccc1C(=O)OCC	-2.73
in CCOC(C)(C)C	-3.93
in CCOC(C)=O	-3.46
in CCOCC	-3.99
in CCOCCO	-2.96
in CCOCCOCCOCC	-3.42
in CCOc1ccccc1	-3.49
in CN1CCCC1=O	-2.65
in CN1CCCCC1=O	-2.78
in CN1CCN(C)C1=O	-2.51
in CN(C)C=O	-2.62
in CN(C)P(=O)(N(C)C)N(C)C	-2.98
in CNC(C)=O	-2.74
in CNC=O	-2.36
in CO	-2.82
in COC(C)(C)C	-4.01
in COC(C)=O	-3.3
in COCCO	-2.7
in COCCOCCOCCOCCOC	-2.82
in COc1ccccc1	-3.41
in CS(C)=O	-1.83
in Cc1ccc(C)cc1	-3.87
in Cc1cccc2ccccc12	-3.36
in Cc1cccc(C)c1	-3.85
in Cc1cccc(O)c1	-2.91
in Cc1ccccc1	-3.87
in Cc1ccccn1	-3.5
in ClC(Cl)(Cl)Cl	-4.08
in ClC(Cl)C(Cl)Cl	-3.35
in ClC(Cl)Cl	-3.94
in ClCCCl	-3.45
in ClCCl	-3.75
in Clc1cccc2ccccc12	-3.23
in Clc1ccccc1	-3.85
in FC(F)(F)C(F)(F)C(F)(F)C(F)(F)C(F)(F)C(F)(F)C(F)(F)C(F)(F)F	-2.53
in FC(F)(F)C(F)(F)C(F)(F)C(F)(F)C(F)(F)C(F)(F)F	-2.67
in Fc1ccccc1	-3.88
in ICI	-2.2
in N#CCCCC#N	-1.5
in N#CCCCCC#N	-1.86
in N#CCCO	-1.84
in N#CCCOCCC#N	-0.89
in N#CCc1ccccc1	-2.62
in N#Cc1ccccc1	-3.13
in NC=O	-0.53
in NCCN	-1.85
in NCCO	-0.77
in NCc1ccccc1	-2.92
in Nc1ccccc1	-2.36
in O=C1CCCCC1	-3.37
in O=C1CCCO1	-2.22
in O=C(O)C(Cl)Cl	-2.74
in O=CN1CCOCC1	-1.98
in O=Cc1ccco1	-2.37
in O=S=O	-3.18
in OC1CCCCC1	-3.1
in OCC1CCCO1	-2.62
in OCCCCCO	-2.03
in OCCCCO	-1.88
in OCCCO	-1.54
in OCCCl	-2.22
in OCCOCCO	-1.43
in OCCOCCOCCO	-1.54
in OCCOCCOCCOCCO	-1.65
in OCCS	-1.9
in OCCc1ccccc1	-2.75
in OCc1ccccc1	-2.66
in OCc1ccco1	-2.27
in S=C=S	-4.03
in c1ccc2c(c1)CCCC2	-3.65
in c1ccc2ncccc2c1	-3.1
in c1ccc(C2CCCCC2)cc1	-3.62
in c1ccccc1	-3.84
in c1ccncc1	-3.27
